Measured values reported in ChEMBL document CHEMBL3865798, “Engineering another class of anti-tubercular lead: Hit to lead optimization of an intriguing class of gyrase ATPase inhibitors” (Eur J Med Chem, 2016).
≈ marks a conversion by molar mass, not a printed value.

Key:
[1] = tested on: Mycobacterium tuberculosis; experiment: microbe, parasite or virus in culture; conditions: H37Rv, 168 h
Description: Antimycobacterial activity against Mycobacterium tuberculosis H37Rv after 7 days by microplate alamar blue assay

[2] = molecular target: DNA gyrase subunit B (Mycobacterium smegmatis (strain ATCC 700084 / mc(2)155), UniProt A0QNE0)
Description: Inhibition of Mycobacterium smegmatis 155 6His-tagged DNA gyrase B catalytic domain ATPase activity expressed in Escherichia coli BL21 (DE3) pLysS cells assessed as inorganic phosphate release after 120 mins in presence of ATP by malachite green dye based assay

[3] = Growth inhibition of mouse RAW264.7 cells at 100 uM after 48 hrs by MTT assay; assay type: cell-based; conditions: read-out: GI
[4] = Oral bioavailability in Wistar rat at 20 mg/kg administered as single dose; assay type: ADME, organism-based; conditions: in vivo
[5] = Protein binding in rat plasma at 5000 ng/ml by HPLC analysis; assay type: ADME, cell-free; conditions: read-out: PPB (converted)
[6] = AUC (0 to infinity) in Wistar rat at 1 mg/kg, iv administered as single dose; assay type: ADME, organism-based; design: dose 1 mg/kg, route intravenous, time infinity; conditions: in vivo
[7] = Tmax in Wistar rat at 20 mg/kg, po administered as single dose; assay type: ADME, organism-based; conditions: in vivo
[8] = Protein binding in rat plasma at 2500 ng/ml by HPLC analysis; assay type: ADME, cell-free; conditions: read-out: PPB (converted)
[9] = Apparent elimination half life in Wistar rat at 1 mg/kg, iv administered as single dose; assay type: ADME, organism-based; conditions: in vivo, read-out: betat1/2(app) (converted)
[10] = Cmax in Wistar rat at 20 mg/kg, po administered as single dose; assay type: ADME, organism-based; design: dose 20 mg/kg, route oral; conditions: in vivo
[11] = Protein binding in human plasma at 5000 ng/ml by HPLC analysis; assay type: ADME, cell-free; conditions: read-out: PPB (converted)
[12] = AUC (0 to infinity) in Wistar rat at 20 mg/kg, po administered as single dose; assay type: ADME, organism-based; design: dose 20 mg/kg, time infinity, route oral; conditions: in vivo
[13] = molecular target: DNA gyrase subunit B (Mycobacterium smegmatis (strain ATCC 700084 / mc(2)155)) (UniProt A0QNE0); experiment: Binding affinity to Mycobacterium smegmatis 155 6His-tagged DNA gyrase B catalytic domain expressed in Escherichia coli BL21 (DE3) pLysS cells assessed as change in melting temperature by SYPRO orange dye based differential scanning fluorimetric analysis; conditions: Mycolicibacterium smegmatis MC2 155
[14] = Volume of distribution in Wistar rat at 1 mg/kg, iv administered as single dose; assay type: ADME, organism-based; conditions: in vivo
[15] = Total clearance in Wistar rat at 1 mg/kg, iv administered as single dose; assay type: ADME, organism-based; conditions: in vivo
[16] = AUC (0 to t) in Wistar rat at 20 mg/kg, po administered as single dose; assay type: ADME, organism-based; conditions: in vivo
[17] = AUC (0 to t) in Wistar rat at 1 mg/kg, iv administered as single dose; assay type: ADME, organism-based; conditions: in vivo
[18] = Protein binding in human plasma at 2500 ng/ml by HPLC analysis; assay type: ADME, cell-free; conditions: read-out: PPB (converted)
[19] = Protein binding in rat plasma by HPLC analysis; assay type: ADME, cell-free
[20] = Protein binding in human plasma by HPLC analysis; assay type: ADME, cell-free
[21] = Protein binding in human plasma at 100 ng/ml by HPLC analysis; assay type: ADME, cell-free; conditions: read-out: PPB (converted)
[22] = Time at which plasma concentration stays above in vitro Mycobacterium DNA gyrase IC50 in Wistar rat at 20 mg/kg, po; assay type: ADME, organism-based; conditions: in vivo
[23] = Protein binding in rat plasma at 100 ng/ml by HPLC analysis; assay type: ADME, cell-free; conditions: read-out: PPB (converted)

Chain of DNA gyrase subunit B (Mycobacterium smegmatis (strain ATCC 700084 / mc(2)155), UniProt A0QNE0) (A0QNE0 whole entry): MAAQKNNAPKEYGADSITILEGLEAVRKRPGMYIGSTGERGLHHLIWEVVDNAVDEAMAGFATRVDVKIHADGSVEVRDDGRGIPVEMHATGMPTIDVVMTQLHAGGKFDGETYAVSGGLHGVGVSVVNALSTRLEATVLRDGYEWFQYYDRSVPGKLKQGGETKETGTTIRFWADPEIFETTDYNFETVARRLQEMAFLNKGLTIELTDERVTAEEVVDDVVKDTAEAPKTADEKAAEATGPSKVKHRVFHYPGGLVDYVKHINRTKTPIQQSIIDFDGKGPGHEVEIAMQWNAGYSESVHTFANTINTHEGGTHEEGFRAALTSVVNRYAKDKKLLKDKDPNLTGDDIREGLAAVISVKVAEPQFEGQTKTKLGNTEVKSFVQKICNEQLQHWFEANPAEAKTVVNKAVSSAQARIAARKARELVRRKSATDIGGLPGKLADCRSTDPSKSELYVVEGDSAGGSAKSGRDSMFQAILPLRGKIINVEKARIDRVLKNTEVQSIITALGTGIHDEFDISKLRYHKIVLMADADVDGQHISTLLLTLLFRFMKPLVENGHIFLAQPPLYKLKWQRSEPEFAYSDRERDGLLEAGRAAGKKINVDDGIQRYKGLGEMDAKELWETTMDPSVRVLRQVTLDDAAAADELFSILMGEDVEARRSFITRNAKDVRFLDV
Chain of DNA gyrase subunit B (Mycobacterium smegmatis (strain ATCC 700084 / mc(2)155)) (A0QNE0 2-675 limits assumed): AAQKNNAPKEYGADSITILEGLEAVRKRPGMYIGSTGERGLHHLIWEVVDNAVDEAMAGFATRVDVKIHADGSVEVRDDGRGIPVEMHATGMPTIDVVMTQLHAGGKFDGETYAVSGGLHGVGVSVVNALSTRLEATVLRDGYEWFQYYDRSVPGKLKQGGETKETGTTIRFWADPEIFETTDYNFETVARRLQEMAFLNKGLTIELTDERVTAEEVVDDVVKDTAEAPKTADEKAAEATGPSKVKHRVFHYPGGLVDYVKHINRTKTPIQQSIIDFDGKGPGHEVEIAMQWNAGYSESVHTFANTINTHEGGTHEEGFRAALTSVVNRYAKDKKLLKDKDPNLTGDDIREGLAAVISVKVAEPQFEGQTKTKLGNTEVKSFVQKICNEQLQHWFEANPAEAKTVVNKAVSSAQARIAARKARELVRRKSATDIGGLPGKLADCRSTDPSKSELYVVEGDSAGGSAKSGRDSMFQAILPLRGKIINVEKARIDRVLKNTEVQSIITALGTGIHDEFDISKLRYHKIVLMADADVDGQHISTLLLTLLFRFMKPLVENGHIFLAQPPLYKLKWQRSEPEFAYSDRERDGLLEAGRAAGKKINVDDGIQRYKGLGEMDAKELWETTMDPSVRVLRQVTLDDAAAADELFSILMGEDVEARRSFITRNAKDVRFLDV

SMILES	MIC [1] [µM]	IC50 [2] [µM]	inhibition at 48 h, 100 µM [3] [%]	other results
O=C(CN1CCN(c2ccnc3cc(Cl)ccc23)CC1)Nc1cc(C(F)(F)F)ccc1Cl	24.2 (≈ 11.7 µg/mL)	31.3	24.7	–
CCNC(=O)N1CCN(c2ccnc3cc(Cl)ccc23)CC1	157 (≈ 50 µg/mL)	45.3	27	–
O=C(c1cc2ccccc2[nH]1)N1CCN(c2ccnc3cc(Cl)ccc23)CC1	16 (≈ 6.25 µg/mL)	8.53	34.6	–
O=C(c1ccc[nH]1)N1CCN(c2ccnc3cc(Cl)ccc23)CC1	18.3 (≈ 6.25 µg/mL)	14.2	34.2	–
CC(=O)c1ccc(NC(=S)N2CCN(c3ccnc4cc(Cl)ccc34)CC2)cc1	58.8 (≈ 25 µg/mL)	27	27.2	–
CC(=O)c1ccc(NC(=O)N2CCN(c3ccnc4cc(Cl)ccc34)CC2)cc1	30.6 (≈ 12.5 µg/mL)	18.8	26.2	–
COc1ccc(NC(=O)N2CCN(c3ccnc4cc(Cl)ccc34)CC2)cc1	31.5 (≈ 12.5 µg/mL)	21.1	25.3	–
O=C(Nc1ccc(F)cc1)N1CCN(c2ccnc3cc(Cl)ccc23)CC1	15.3 (≈ 5.88 µg/mL)	3.1	17.6	–
S=C(Nc1ccccc1)N1CCN(c2ccnc3cc(Cl)ccc23)CC1	16.3 (≈ 6.25 µg/mL)	4.12	16.5	–
O=C(CN1CCN(c2ccnc3cc(Cl)ccc23)CC1)Nc1ccccn1	17.7 (≈ 6.76 µg/mL)	9.1	25.4	–
O=C(c1cc2cc(Cl)ccc2[nH]1)N1CCN(c2ccnc3cc(Cl)ccc23)CC1	14.7 (≈ 6.25 µg/mL)	10.3	29.8	–
O=C(CN1CCN(c2ccnc3cc(Cl)ccc23)CC1)NCc1ccccn1	31.6 (≈ 12.5 µg/mL)	12.2	36.4	–
CC1COc2c(N3CCN(C)CC3)c(F)cc3c(=O)c(C(=O)O)cn1c23 (stereo not drawn) [OFLOXACIN]	2.16 (≈ 0.781 µg/mL)	–	–	–
O=[N+]([O-])c1ccc(NC(=S)N2CCN(c3ccnc4cc(Cl)ccc34)CC2)cc1	14.3 (≈ 6.13 µg/mL)	6.8	39.9	–
O=C(CN1CCN(c2ccnc3cc(Cl)ccc23)CC1)NCCc1ccccn1	61 (≈ 25 µg/mL)	30.4	26.3	–
COc1ccc2[nH]c(C(=O)N3CCN(c4ccnc5cc(Cl)ccc45)CC3)cc2c1	29.7 (≈ 12.5 µg/mL)	24.3	16.4	–
O=C(CN1CCN(c2ccnc3cc(Cl)ccc23)CC1)NCc1ccco1	32.5 (≈ 12.5 µg/mL)	16.2	21.1	–
O=C(Nc1ccc([N+](=O)[O-])cc1)N1CCN(c2ccnc3cc(Cl)ccc23)CC1	30.4 (≈ 12.5 µg/mL)	9.2	41.8 to 42	–
S=C(NCc1ccccc1)N1CCN(c2ccnc3cc(Cl)ccc23)CC1	15.8 (≈ 6.25 µg/mL)	5.5	19.8	–
CCNC(=S)N1CCN(c2ccnc3cc(Cl)ccc23)CC1	74.6 (≈ 25 µg/mL)	40.6	21.9	–
O=C(CN1CCN(c2ccnc3cc(C(F)(F)F)ccc23)CC1)NCc1ccccn1	116 (≈ 50 µg/mL)	> 75	51.2	–
O=C(c1ccccn1)N1CCN(c2ccnc3cc(Cl)ccc23)CC1	35.4 (≈ 12.5 µg/mL)	11	23.6	–
Clc1ccc2c(N3CCN(Cc4nc5ccccc5[nH]4)CC3)ccnc2c1	27.3 (≈ 10.3 µg/mL)	32.6	34.8	–
O=C(Nc1ccccc1)N1CCN(c2ccnc3cc(Cl)ccc23)CC1	17 (≈ 6.25 µg/mL)	7.6	30.9	–

SMILES	MIC [1] [µM]	IC50 [2] [µM]	inhibition at 48 h, 100 µM [3] [%]	other results
CO[C@H]1/C=C/O[C@@]2(C)Oc3c(C)c(O)c4c(O)c(c(/C=N/N5CCN(C)CC5)c(O)c4c3C2=O)NC(=O)/C(C)=C\C=C\[C@H](C)[C@H](O)[C@@H](C)[C@@H](O)[C@@H](C)[C@H](OC(C)=O)[C@@H]1C [RIFAMPIN]	0.23 (≈ 0.189 µg/mL)	–	–	–
CC(C)NC(=O)N1CCN(c2ccnc3cc(Cl)ccc23)CC1	155 (≈ 51.6 µg/mL)	43.9	34.4	–
O=C(CN1CCN(c2ccnc3cc(Cl)ccc23)CC1)NCc1cccs1	31.2 (≈ 12.5 µg/mL)	14.8	33.4	–
CC(=O)c1ccc(NC(=O)CN2CCN(c3ccnc4cc(Cl)ccc34)CC2)cc1	14.5 (≈ 6.13 µg/mL)	7.6	29.5	–
O=C(CN1CCN(c2ccnc3cc(Cl)ccc23)CC1)NCc1ccccc1	63.3 (≈ 25 µg/mL)	23.8	15.3	–
O=C(Nc1ccc(Cl)cc1)N1CCN(c2ccnc3cc(Cl)ccc23)CC1	31.5 (≈ 12.6 µg/mL)	9.9	26.2	–
Cc1ccc(NC(=O)N2CCN(c3ccnc4cc(Cl)ccc34)CC2)cc1	32.8 (≈ 12.5 µg/mL)	16	33.9	–
CC(C)NC(=S)N1CCN(c2ccnc3cc(Cl)ccc23)CC1	71.6 (≈ 25 µg/mL)	40.4	36.3	–
O=[N+]([O-])c1cnc(N2CCN(c3ccnc4cc(Cl)ccc34)CC2)s1	33.2 (≈ 12.5 µg/mL)	9.6	35.1	–
O=[N+]([O-])c1ccc(N2CCN(c3ccnc4cc(Cl)ccc34)CC2)c2nonc12	7.26 (≈ 2.98 µg/mL)	10.3	37.2	–
Cc1ccc(NC(=S)N2CCN(c3ccnc4cc(Cl)ccc34)CC2)cc1	63 (≈ 25 µg/mL)	13.8	15.8	–
O=C(CN1CCN(c2ccnc3ccccc23)CC1)NCc1ccccn1	138 (≈ 50 µg/mL)	> 75	23.5	–
COc1ccc2c(N3CCN(CC(=O)NCc4ccccn4)CC3)ccnc2c1	63.9 (≈ 25 µg/mL)	51.6	33.5	–
Clc1ccc2c(N3CCN(Cc4ccc[nH]4)CC3)ccnc2c1	76.5 (≈ 25 µg/mL)	16.9	12.6	–
COc1ccc(NC(=S)N2CCN(c3ccnc4cc(Cl)ccc34)CC2)cc1	30.3 (≈ 12.5 µg/mL)	11	23.1	–
O=C(CN1CCN(c2ccnc3cc(Cl)ccc23)CC1)Nc1nc2ccc([N+](=O)[O-])cc2s1	25.8 (≈ 12.5 µg/mL)	16.1	23.6	–
NNC(=O)c1ccncc1 [ISONIAZID]	0.66 (≈ 0.0905 µg/mL)	–	–	–
O=C(NCc1ccccc1)N1CCN(c2ccnc3cc(Cl)ccc23)CC1	17.7 (≈ 6.73 µg/mL)	6.1	25.2	–
O=C(c1cc2cc(F)ccc2[nH]1)N1CCN(c2ccnc3cc(Cl)ccc23)CC1	15.3 (≈ 6.25 µg/mL)	13.6	23.3	–
Fc1ccc(NC(=S)N2CCN(c3ccnc4cc(Cl)ccc34)CC2)cc1	7.8 (≈ 3.13 µg/mL)	2.5	23.9	bioavailability [4]: 71.2%; fraction unbound at 5000 ng/ml [5]: 0.046; AUC(0-inf) [6]: 1350 ng·h/mL; Tmax [7]: 2.2 h; fraction unbound at 2500 ng/ml [8]: 0.052; half-life [9]: 2.04 h; Cmax [10]: 2910 ng/mL; fraction unbound at 5000 ng/ml [11]: 0.057; AUC(0-inf) [12]: 19300 ng·h/mL; ΔTm [13]: 4.1 °C; Vd [14]: 0.99 L/kg; clearance [15]: 13.3 mL/min/kg; AUC(0-t) [16]: 18800 ng·h/mL; AUC(0-t) [17]: 1240 ng·h/mL; fraction unbound at 2500 ng/ml [18]: 0.064; PPB [19]: Dose-dependent effect; PPB [20]: Dose-dependent effect; fraction unbound at 100 ng/ml [21]: 0.078; Time [22]: > 6 h; fraction unbound at 100 ng/ml [23]: 0.065
S=C(Nc1ccc(Cl)cc1)N1CCN(c2ccnc3cc(Cl)ccc23)CC1	30 (≈ 12.5 µg/mL)	10.7	34.2	–
Clc1ccc2c(N3CCN(Cc4c[nH]c5ccccc45)CC3)ccnc2c1	16.2 (≈ 6.12 µg/mL)	8.3	22.2	–
O=C(CN1CCN(c2ccnc3cc(Cl)ccc23)CC1)Nc1ncc([N+](=O)[O-])s1	31.2 (≈ 13.5 µg/mL)	14.6	11.3	–
O=C(CN1CCN(c2ccnc3cc(Cl)ccc23)CC1)Nc1ccccc1	35.5 (≈ 13.5 µg/mL)	33.1	26.2	–
